Patent US4652548A (Eli Lilly and Company, priority 1984, dated 1987)

Legend:
[1] = tested on: insulin-degrading proteases; conditions: subcutaneous injection site
[2] = Euglycemic glucose-clamp: steady state serum hormone levels; format: in vivo, human
Protocol: J. Physiol. 237:E214-E223 (1979). With this technique, an antecuubital vein is cannulated in an antegrade manner to administer the infusates. A dorsal hand vein is cannulated in a retrograde fashion and kept in a warming device (70° C.) to facilitate venous sampling and provide arterialized venous blood After insertion of the catheters, [3-3H]-glucose is infused for at least 30 minutes before initiating the hormone infusion. At the onset of hormone infusion, a priming dose of either insulin or proinsulin is administered during the initial 10 minutes in a logarithmically decreasing manner to acutely raise the serum hormone level. The amount of insulin or proinsulin given during this initial 10 minute period is roughly twice that given during each subsequent 10 minute interval by a continuous hormone infusion The serum glucose is maintained between 80 and 90 mg/dl throughout the study period with a coefficient of variation of less than 5% by means of a variable rate of infusion of 20% dextrose. The overall glucose disposal rate is assessed isotopically for each 20 minute interval of the study.
Each subject underwent a total of 8 euglycemic glucose clamp studies, each performed on a separate day. Insulin infusion rates of 15, 40, 120, and 240 mU/M2/min were utilized to construct a dose response curve for insulin action. With this approach an attempt was made to achieve steady state insulin concentrations of 40 to 800 μU/ml (Table 1). Each subject was also studied with four different proinsulin infusions. […] Hepatic glucose output was quantitated in the basal state and during each clamp study using a primed continuous infusion of [3-3H]glucose. […] The dose response relationship for insulin and proinsulin mediated suppression of hepatic glucose output was determined by calculating the percent suppression of basal hepatic glucose output at each steady state hormone concentration obtained during the euglycemic clamp studies.

[3] = tested on: peripheral glucose uptake; assay: Kinetics of activation and deactivation of effect on peripheral glucose uptake; format: in vivo, human
Text: Marked differences between the two hormones were noted when biologic activity was studied.
(§1) At this point, the hormone infusion was abruptly stopped, and the glucose concentration was maintained constant until the biologic effects of the infused hormone were no longer detectable.

[4] = tested on: hepatic glucose production; assay: Subcutaneous administration to Type II diabetic subjects: hepatic glucose production; format: in vivo, human; conditions: 0.2 U/kg s.c.
[5] = after stopping 5 hour infusion
Text: as §1

[6] = tested on: fasting Type II diabetic patients; assay: Subcutaneous administration to fasting Type II diabetic patients: plasma glucose; format: in vivo, human; conditions: for Plasma Glucose, Mean: mean total dose 18.7 I.U. (0.2 U/kg s.c.)

## human proinsulin: human proinsulin, available by organic synthesis, isolation from human pancreas or recombinant DNA methodology
[1]
  Degradation by insulin-degrading proteases: not degraded
[2]; infusion A: insulin 0.63, proinsulin 2.75 μg/M^2/min
  Steady State Hormone Levels (Mean ± SEM): 2.55 ± 0.16 pmol/mL
[2]; infusion B: insulin 1.67, proinsulin 7.5 μg/M^2/min
  Steady State Hormone Levels (Mean ± SEM): 6.24 ± 0.49 pmol/mL
[2]; infusion C: insulin 5.0, proinsulin 22.5 μg/M^2/min
  Steady State Hormone Levels (Mean ± SEM): 21.2 ± 1.4 pmol/mL
[2]; infusion D: insulin 10.0, proinsulin 45.0 μg/M^2/min
  Steady State Hormone Levels (Mean ± SEM): 40.0 ± 1.9 pmol/mL
[3]; after stopping 5 hour infusion
  Decay of biologic effect to stimulate glucose disposal, more slowly than human insulin: 2.2 times
[3]; after stopping 5 hour infusion (human insulin 0.55, human proinsulin 2.75 μg/M2/min)
  t 1/2 of deactivation of effects on glucose disposal: 1.45 ± 0.233 h
[3]; both stimulation of glucose disposal and inhibition of HGO
  Time needed to reach steady state biologic effects compared to human insulin: much slower
[3]; continuous infusion
  Time to steady state effect to stimulate glucose disposal: 5 h
[3]; following cessation of 2.75 μg/M2/min infusion
  Time until glucose disposal rates returned to basal: 160 min
[4]
  Effect on elevated hepatic glucose production: suppressed into the normal range
  Time of maximum suppression of hepatic glucose production: 264 ± 31 min
[4]; basal 3.83±0.6
  Minimum hepatic glucose production: 1.21 ± 0.2 mg/kg/min
[5]
  Time by which hormone concentrations are below biologically effective values: ≤ 90 minutes
[6]; 0.2 U/kg s.c., normal range about 80-110 mg/dl
  Blood glucose level of each subject: lowered to a normal range
[6]; five Type II subjects, 0.2 U/kg s.c., insulin: by approximately 300 minutes
  Hypoglycemia among subjects: hypoglycemia nowhere evidenced
[6]; mean of subjects with values, 360 min after injection
  Plasma Glucose, Mean: 102 mg/dL
[6]; mean of subjects with values, 400 min after injection
  Plasma Glucose, Mean: 95 mg/dL
[6]; mean of subjects with values, 440 min after injection
  Plasma Glucose, Mean: 92 mg/dL
[6]; mean of subjects with values, 480 min after injection
  Plasma Glucose, Mean: 96 mg/dL
[6]; mean of subjects, 0 min after injection
  Plasma Glucose, Mean: 245 mg/dL
[6]; mean of subjects, 40 min after injection
  Plasma Glucose, Mean: 235 mg/dL
[6]; mean of subjects, 80 min after injection
  Plasma Glucose, Mean: 221 mg/dL
[6]; mean of subjects, 120 min after injection
  Plasma Glucose, Mean: 205 mg/dL
[6]; mean of subjects, 160 min after injection
  Plasma Glucose, Mean: 188 mg/dL
[6]; mean of subjects, 280 min after injection
  Plasma Glucose, Mean: 129 mg/dL
[6]; mean of subjects, 300 min after injection
  Plasma Glucose, Mean: 113 mg/dL
[6]; subject four, total dose 16.3 I.U. (0.2 U/kg s.c.), 0 min after injection
  Plasma Glucose: 290 mg/dL
[6]; subject four, total dose 16.3 I.U. (0.2 U/kg s.c.), 40 min after injection
  Plasma Glucose: 282 mg/dL
[6]; subject four, total dose 16.3 I.U. (0.2 U/kg s.c.), 80 min after injection
  Plasma Glucose: 272 mg/dL
[6]; subject four, total dose 16.3 I.U. (0.2 U/kg s.c.), 120 min after injection
  Plasma Glucose: 250 mg/dL
[6]; subject four, total dose 16.3 I.U. (0.2 U/kg s.c.), 160 min after injection
  Plasma Glucose: 230 mg/dL
[6]; subject four, total dose 16.3 I.U. (0.2 U/kg s.c.), 200 min after injection
  Plasma Glucose: 200 mg/dL
[6]; subject four, total dose 16.3 I.U. (0.2 U/kg s.c.), 240 min after injection
  Plasma Glucose: 183 mg/dL
[6]; subject four, total dose 16.3 I.U. (0.2 U/kg s.c.), 280 min after injection
  Plasma Glucose: 152 mg/dL
[6]; subject four, total dose 16.3 I.U. (0.2 U/kg s.c.), 300 min after injection
  Plasma Glucose: 127 mg/dL
[6]; subject four, total dose 16.3 I.U. (0.2 U/kg s.c.), 360 min after injection
  Plasma Glucose: 101 mg/dL
[6]; subject four, total dose 16.3 I.U. (0.2 U/kg s.c.), 400 min after injection
  Plasma Glucose: 82 mg/dL
[6]; subject four, total dose 16.3 I.U. (0.2 U/kg s.c.), 440 min after injection
  Plasma Glucose: 77 mg/dL
[6]; subject one, total dose 14.8 I.U. (0.2 U/kg s.c.), 0 min after injection
  Plasma Glucose: 213 mg/dL
[6]; subject one, total dose 14.8 I.U. (0.2 U/kg s.c.), 40 min after injection
  Plasma Glucose: 203 mg/dL
[6]; subject one, total dose 14.8 I.U. (0.2 U/kg s.c.), 80 min after injection
  Plasma Glucose: 187 mg/dL
[6]; subject one, total dose 14.8 I.U. (0.2 U/kg s.c.), 160 min after injection
  Plasma Glucose: 140 mg/dL
[6]; subject one, total dose 14.8 I.U. (0.2 U/kg s.c.), 240 min after injection
  Plasma Glucose: 81 mg/dL
[6]; subject one, total dose 14.8 I.U. (0.2 U/kg s.c.), 280 min after injection
  Plasma Glucose: 77 mg/dL
